Source: patent publication US8389508B2 (Glaxo Group Limited, priority 2010, dated 2013)
Structures can show the parent of a compound that is named as a salt.

Key:
[1] = target: T1, human Endothelial Differentiation G-protein Coupled Receptor 3 (EDG3), S1P3 receptor (Homo sapiens, UniProt Q99500); assay: S1P3 Assay (GeneBLAzer EDG3-Ga15-NFAT-bla HEK 293T beta-lactamase reporter, agonist dose response); type: cell-based; details: EDG3-Ga15-NFAT-bla HEK 293T cells, blue/green emission ratio, 10 point dose response, free base or salt form; read-out: pEC50 (S1P3 assay) (converted)
T1 construct: expressed in transfected cells; host or cells: GeneBLAzer EDG3-Ga15-NFAT-bla HEK 293T
Method: GeneBLAzer EDG3-Ga15-NFAT-bla HEK 293T cells (contain the human Endothelial Differentiation G-protein Coupled Receptor 3 (EDG3) and a beta-lactamase reporter gene under control of a NFAT response element and a promiscuous G Protein, Ga15, stably integrated into the GeneBLAzer Ga15-NFAT-bla HEK 293T cell line) were harvested from growth medium and suspended in assay medium (90% DMEM, 10% Charcoal-stripped FBS, 0.1 mM NEAA, 25 mM HEPES (pH 7.3), 100 U/ml penicillin, 100 μg/ml streptomycin) at a density of […]. All test compounds were dissolved in DMSO at a concentration of 10 mM and were prepared in 100% DMSO to provide 10 point dose response curves. Test compounds in the free base or in a salt form were prepared by Velocity 11 Bravo automation (Agilent) were added to wells in columns 2-11 and 13-22; DMSO was added to wells in columns 12 and 23 as unstimulated controls and assay medium was added to wells in columns 1 and 24 as cell-free controls. An S1P3 agonist was added to wells in row 2, columns 2-11 as stimulated controls and test compounds were added to wells in row 2, columns 13-22 and rows 3-15, columns 2-11/13-22 (row 1 and 16 were empty and not used). Compounds in solution were added to the assay plate (Greiner 781090) using an Echo (Labcyte) dose-response program (50 nl/well). The unstimulated and cell-free controls were loaded with 50 nl/well pure DMSO to ensure that the DMSO concentration was constant across the plate for all assays.
50 μl of the cell suspension was added to each well in columns 2-23 of the plate (˜10,000 cells per well). 50 μl of assay medium was added to each well in the cell-free controls (columns 1 and 24). The cells were incubated overnight at 37° C./5% CO2.
(§1) 10 μl of 6× substrate mixture (LiveBLAzer™-FRET B/G substrate (CCF4-AM) Cat # K1096 from Invitrogen, Inc.) was added to each well using Bravo automation and the plates incubated at room temperature for 2 h in the dark. The plate was finally read on EnVision using one excitation channel (409 nm) and two emission channels (460 nm and 530 nm).
(§2) The blue/green emission ratio (460 nm/530 nm) was calculated for each well, by dividing the background-subtracted Blue emission values by the background-subtracted Green emission values. The dose response curve is based on sigmoidal dose-response model. All ratio data was normalized based upon the maximum emission ratio of positive control and minimum emission ratio of negative control (DMSO) on each plate. The intrinsic activity (IA) of each compound is defined as relative response normalised to a reference compound, whose maximum response is defined as 100% after curve fitting.

[2] = target: T2, human Endothelial Differentiation Gene 1 (EDG1), S1P1 receptor (Homo sapiens, UniProt P21453); assay: S1P1 Assay (Tango EDG1-bla/U2OS beta-lactamase reporter, agonist dose response); type: cell-based; details: EDG1-bla/U2OS cells, blue/green emission ratio, 10 point dose response, free base or salt form; read-out: pEC50 (S1P1 assay) (converted)
T2 construct: TEV protease site; Gal4-VP16 transcription factor; expressed in transfected cells; host or cells: EDG1-bla/U2OS (Tango GPCR-bla U2OS parental cell line)
Method: Recombinant EDG1-bla/U2OS cells (contain the human Endothelial Differentiation Gene 1 (EDG1) linked to a TEV protease site and a Gal4-VP16 transcription factor stably integrated into the Tango GPCR-bla U2OS parental cell line) were harvested from growth medium and passaged into assay medium (Invitrogen Freestyle Expression Medium). The cells were starved for 24 hours at 37° C., 5% CO2, harvested and resuspended in assay medium at a density of ˜200,000 cells/ml. All test compounds were dissolved in DMSO at a concentration of 10 mM and were prepared in 100% DMSO to provide 10 point dose response curves. Test compounds in the free base or in a salt form were prepared by Velocity11 Bravo automation (Agilent) were added to wells in columns 2-11 and 13-22; DMSO was added to wells in columns 12 and 23 as unstimulated controls and assay medium was added to wells in columns 1 and 24 as cell-free controls. An S1P1 agonist was added to wells in row 2, columns 2-11 as stimulated controls and test compounds were added to wells in row 2, columns 13-22 and rows 3-15, columns 2-11/13-22 (row 1 and 16 were empty and not used). Compounds in solution were added to the assay plate (Greiner 781090) using an Echo (Labcyte) dose-response program (50 nl/well). The unstimulated and cell-free controls were loaded with 50 nl/well pure DMSO to ensure that the DMSO concentration was constant across the plate for all assays. 50 μl of the cell suspension was added to each well in columns 2-23 of the plate (˜10,000 cells per well). 50 μl of assay medium was added to each well in the cell-free controls (columns 1 and 24). The cells were incubated overnight at 37° C./5% CO2.
as §1, §2

T2 sequence (P21453 whole entry, the tested form may be a part): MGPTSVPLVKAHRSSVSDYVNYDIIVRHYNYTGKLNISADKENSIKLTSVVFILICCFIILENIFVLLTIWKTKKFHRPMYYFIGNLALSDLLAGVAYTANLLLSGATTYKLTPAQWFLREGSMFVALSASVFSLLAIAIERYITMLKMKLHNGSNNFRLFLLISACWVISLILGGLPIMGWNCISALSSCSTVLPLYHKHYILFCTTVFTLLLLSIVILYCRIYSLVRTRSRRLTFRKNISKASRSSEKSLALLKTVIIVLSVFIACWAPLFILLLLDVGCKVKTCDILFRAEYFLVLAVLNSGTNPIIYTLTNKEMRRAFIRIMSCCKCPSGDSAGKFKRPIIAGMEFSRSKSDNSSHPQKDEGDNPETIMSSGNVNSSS
T1 sequence (Q99500 whole entry): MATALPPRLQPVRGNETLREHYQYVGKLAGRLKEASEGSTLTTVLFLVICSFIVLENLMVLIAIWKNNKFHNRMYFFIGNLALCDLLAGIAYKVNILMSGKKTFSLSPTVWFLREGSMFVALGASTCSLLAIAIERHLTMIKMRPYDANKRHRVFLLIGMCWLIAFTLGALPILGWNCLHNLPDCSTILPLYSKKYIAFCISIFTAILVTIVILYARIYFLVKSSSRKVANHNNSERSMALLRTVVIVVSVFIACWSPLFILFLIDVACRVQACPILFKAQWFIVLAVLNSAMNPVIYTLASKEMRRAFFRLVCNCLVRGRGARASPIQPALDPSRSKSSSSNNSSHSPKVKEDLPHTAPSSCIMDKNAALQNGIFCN

CCc1c(CC2CCN(CC(=O)O)CC2)cccc1-c1nsc(-c2ccc(OC(C)C)c(Cl)c2)n1 [Example 105, (4-{[3-(5-{3-chloro-4-[(1-methylethyl)oxy]phenyl}-1,2,4-thiadiazol-3-yl)-2-ethylphenyl]methyl}-1-piperidinyl)acetic acid trifluoroacetate] was tested. Which EC50 [1] did it give?
The EC50 was greater than 10000 nM.

What about the EC50 [2] of the same compound?
Its EC50 is less than 100 nM.

With COc1c(CCN2CCC(C(=O)O)CC2)cccc1-c1nsc(-c2ccc(OC(C)C)c(Cl)c2)n1 [Example 73, 1-{2-[3-(5-{3-chloro-4-[(1-methylethyl)oxy]phenyl}-1,2,4-thiadiazol-3-yl)-2-(methyloxy)phenyl]ethyl}-4-piperidinecarboxylic acid trifluoroacetate] as the compound, how does the EC50 [1] read?
The EC50 was greater than 3160 nM.

And the EC50 [2]?
Its EC50 is no more than 10 nM.

For CCc1c(CN2CC[C@H](C(=O)O)C2)cccc1-c1cnc(-c2ccc(OC(C)C)c(C#N)c2)s1 [Example 84], which EC50 [1] is on record?
Its EC50 is greater than 10000 nM.

What about the EC50 [2] of the same compound?
The EC50 was no more than 10 nM.

For CCc1c(CCN2CCCC(C(=O)O)C2)cccc1-c1nsc(-c2ccc(OC(C)C)c(Cl)c2)n1 (stereo not shown) [Example 70], which EC50 [1] is on record?
The EC50 was greater than 3160 nM.

And the EC50 [2]?
The EC50 was less than 1 nM.

Which results are given for CCc1c(CN2CC(C(=O)O)C2)cccc1-c1cnc(-c2ccc(OC(C)C)c(C#N)c2)s1 [Example 38, 1-{[3-(2-{3-cyano-4-[(1-methylethyl)oxy]phenyl}-1,3-thiazol-5-yl)-2-ethylphenyl]methyl}-3-azetidinecarboxylic acid trifluoroacetate]?
EC50 [1]: > 10000 nM; EC50 [2]: < 1 nM

For CCc1c(CCN2CCC[C@H](C(=O)O)C2)cccc1-c1nnc(-c2ccc(OC(C)C)c(Cl)c2)s1 [Example 57], which EC50 [1] is on record?
Its EC50 is greater than 3160 nM.

What about the EC50 [2] of the same compound?
Its EC50 is less than 1 nM.

Which EC50 [1] does the source give for Cc1c(CCN2CCC(C(=O)O)CC2)cccc1-c1nsc(-c2ccc(OC(C)C)c(Cl)c2)n1 [Example 74, 1-{2-[3-(5-{3-chloro-4-[(1-methylethyl)oxy]phenyl}-1,2,4-thiadiazol-3-yl)-2-methylphenyl]ethyl}-4-piperidinecarboxylic acid] here?
The EC50 was greater than 3160 nM.

And the EC50 [2]?
Its EC50 is less than 1 nM.

What does the source list for CCc1c(CCN2CC(C(=O)O)C2)cccc1-c1nsc(-c2ccc(OC(C)C)c(C#N)c2)n1 [Example 26, 1-{2-[3-(5-{3-cyano-4-[(1-methylethyl)oxy]phenyl}-1,2,4-thiadiazol-3-yl)-2-ethylphenyl]ethyl}-3-azetidinecarboxylic acid trifluoroacetate]?
EC50 [1]: > 3160 nM; EC50 [2]: < 1 nM

Which EC50 [1] does the source give for CCc1c(-c2nsc(-c3ccc(OC(C)C)c(Cl)c3)n2)cccc1C1CCN(CCCC(=O)O)CC1 [Example 102, 4-{4-[3-(5-{3-chloro-4-[(1-methylethyl)oxy]phenyl}-1,2,4-thiadiazol-3-yl)-2-ethylphenyl]-1-piperidinyl}butanoic acid trifluoroacetate] here?
Its EC50 is greater than 10000 nM.

What about the EC50 [2] of the same compound?
The EC50 was no more than 10 nM.

How did the EC50 [1] turn out when CCc1c(CN2CC(C(=O)O)C2)cccc1-c1cnc(-c2ccc(CC(C)C)c(C#N)c2)s1 [Example 43, 1-[(3-{2-[3-cyano-4-(2-methylpropyl)phenyl]-1,3-thiazol-5-yl}-2-ethylphenyl)methyl]-3-azetidinecarboxylic acid trifluoroacetate] was run?
The EC50 was greater than 3160 nM.

What about the EC50 [2] of the same compound?
The EC50 was less than 1 nM.

Which EC50 [1] does the source give for CCc1c(CN2CCC[C@H](C(=O)O)C2)cccc1-c1nnc(-c2ccc(CC(C)C)c(C#N)c2)s1 [Example 51] here?
Its EC50 is greater than 10000 nM.

What about the EC50 [2] of the same compound?
Its EC50 is less than 1 nM.

With CCc1c(CCN2CCC[C@H](C(=O)O)C2)cccc1-c1nnc(-c2ccc(CC(C)C)c(C#N)c2)s1 [Example 64] as the compound, how does the EC50 [1] read?
Its EC50 is greater than 3160 nM.

What about the EC50 [2] of the same compound?
Its EC50 is less than 1 nM.

With CCc1c(-c2nsc(-c3ccc(OC(C)C)c(Cl)c3)n2)cccc1C1CCN(CC(=O)O)CC1 [Example 99, {4-[3-(5-{3-chloro-4-[(1-methylethyl)oxy]phenyl}-1,2,4-thiadiazol-3-yl)-2-ethylphenyl]-1-piperidinyl}acetic acid trifluoroacetate] as the compound, how does the EC50 [1] read?
The EC50 was greater than 3160 nM.

And the EC50 [2]?
The EC50 was no more than 10 nM.

Which EC50 [1] does the source give for CCc1c(CCN2CCC(C(=O)O)CC2)cccc1-c1cnc(-c2ccc(OC(C)C)c(C#N)c2)s1 [Example 37, 1-{2-[3-(2-{3-cyano-4-[(1-methylethyl)oxy]phenyl}-1,3-thiazol-5-yl)-2-ethylphenyl]ethyl}-4-piperidinecarboxylic acid trifluoroacetate] here?
Its EC50 is 933 nM.

And the EC50 [2]?
The EC50 was less than 1 nM.
